Results: ChEMBL document CHEMBL6078664, “Abietane Diterpenoids from the Rhizomes of Kaempferia roscoeana and Their Anti-Inflammatory Activities” (J Nat Prod, 2024)

Tests used:
RAW264.7 [1] = test: Cytotoxicity against mouse RAW264.7 cells incubated for 24 hrs by MTT assay; assay type: functional, cell-based; conditions: RAW264.7, 24 h
RAW264.7 [2] = test: Antiinflammatory activity in LPS-induced mouse RAW264.7 cells assessed as inhibition of NO production preincubated for 1 hr followed by LPS stimulation and measured after 24 hrs by microplate reader based analysis; assay type: functional, cell-based

Row | IC50 (RAW264.7 [2]) | SMILES | IC50 (RAW264.7 [1])
1 | 20 µM | CC(C)C1=C[C@]23OC[C@@]4(CCCC(C)(C)[C@@H]4C[C@H]2O)[C@@]3(O)CC1 | > 50 µM
2 | > 50 µM | CC(C)C1=C[C@@]23CC[C@H]4C(C)(C)CCC[C@]4([C@H](O)O2)[C@@]3(O)CC1 | > 50 µM
3 | 36.8 µM | CC(C)C1=C[C@@]23CC[C@H]4C(C)(C)CCC[C@]4(CO2)[C@@]3(O)CC1 | 44.4 µM

Second part, the compound before the results:

Row | SMILES | IC50 (RAW264.7 [2]) | IC50 (RAW264.7 [1])
4 | CO[C@@H]1O[C@]23C=C(C(C)C)CC[C@]2(O)[C@]12CCCC(C)(C)[C@@H]2CC3 | 4.1 µM | > 50 µM
5 | CC(C)[C@]1(O)C=C2[C@H](O)C[C@H]3C(C)(C)CCC[C@]3(C)[C@@]2(O)CC1 | 13.7 µM | > 50 µM
6 | CC(C)C1=CC2=CC[C@H]3C(C)(C)CCC[C@]3(C=O)[C@@]2(O)CC1 | 4.3 µM | > 50 µM
7 | CC(C)[C@]1(O)C=C2CC[C@H]3C(C)(C)CCC[C@]3(C)[C@@]2(O)CC1 | 3.6 µM | > 50 µM
8 | C[C@@H]1C[C@H]2[C@@H]3CCC4=CC(=O)C=C[C@]4(C)[C@@]3(F)[C@@H](O)C[C@]2(C)[C@@]1(O)C(=O)CO [DEXAMETHASONE] | 0.3 µM | > 50 µM
